Source: publication PMC9549030, “Structural basis for specific inhibition of the deubiquitinase UCHL1” (Nature Communications, 2022)
Residue numbers refer to the chain shown, from its start. Where “and” joins values, the source holds several entries; their conditions need not be identical. Equal values may be shown once. Read-outs that look alike come from different tables or passages of the source.

Legend:
UCHL1 [1] = target: T1, UCHL1 (Homo sapiens, UniProt P09936); assay: Ub-Rhodamine (Ubiquitin rhodamine cleavage) assay; type: biochemical; conditions: for normalized UCHL1 activity: independent experiments
T1 sequence (P09936 1-223): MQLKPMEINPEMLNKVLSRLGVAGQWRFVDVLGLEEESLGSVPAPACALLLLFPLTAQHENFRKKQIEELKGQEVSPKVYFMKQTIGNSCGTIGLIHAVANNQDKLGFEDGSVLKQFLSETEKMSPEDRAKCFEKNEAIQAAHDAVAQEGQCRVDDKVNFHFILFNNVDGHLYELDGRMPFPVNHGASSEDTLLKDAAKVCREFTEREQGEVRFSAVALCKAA

UCHL3 A11I = target: T2, UCHL3 A11I (Homo sapiens, UniProt P15374, A11I); assay: Ub-Rhodamine (Ubiquitin rhodamine cleavage) assay; type: biochemical
T2 sequence (P15374 1-230 A11I): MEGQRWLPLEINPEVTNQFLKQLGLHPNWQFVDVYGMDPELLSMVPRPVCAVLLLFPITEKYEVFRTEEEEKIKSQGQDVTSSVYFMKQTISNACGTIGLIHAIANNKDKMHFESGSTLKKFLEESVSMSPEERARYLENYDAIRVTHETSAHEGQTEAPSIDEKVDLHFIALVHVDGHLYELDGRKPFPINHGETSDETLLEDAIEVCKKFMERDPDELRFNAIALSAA

UCHL3 A11I+L168F = target: T3, UCHL3 A11I+L168F (Homo sapiens, UniProt P15374, A11I/L168F); assay: Ub-Rhodamine (Ubiquitin rhodamine cleavage) assay; type: biochemical
T3 sequence (P15374 1-230 A11I/L168F): T2 sequence (P15374 1-230 A11I) with L168F

UCHL3 A11I,L168F = assay: Intact protein mass spectrometry; type: binding, human; conditions: enzyme 3 µM; compound 10 µM; 1 h
From the text: Spectra were deconvoluted with ProMass (Enovatia).

UCHL1 [2] = target: T1, UCHL1; assay: Jump-dilution assay; type: biochemical; conditions: 625 nM GK13S 2 h, then diluted 100-fold
Protocol: Reactions were performed in similar 384 plates as above in a final volume of 20 µL. […] Parts of this solution were diluted at 1:50 at different time points with buffer H. All samples were then diluted 1:2 with 100 nM Ub-Rho (buffer H, final concentration in well 50 nM) and fluorescence was recorded as described above.

DUBs in HEK293 lysate = assay: Activity-based protein profiling in the lysate with Ub-VS competition; type: binding, human; conditions: 1 µM, 1 h
Protocol: Cells (4 × 10^6) were seeded in 10 cm dishes and grown to 90% confluency. The medium was aspirated, cells were washed with ice-cold PBS, treated with 600 µL ABP lysis buffer (1% (v/v) IGEPAL, 50 mM Tris, 150 mM NaCl, 5% glycerol, pH 8, cOmplete protease inhibitor cocktail), and incubated on ice for 15 min. The lysed cells were scrapped off the dish, cleared by centrifugation, and the protein concentration was determined via a Bradford assay. […] Each compound was diluted to a 2x concentration in PBS buffer from a 10 mM stock in DMSO (final concentration: 1 µM). Then each compound dilution or a DMSO dilution was mixed with cell lysate and incubated for one hour at room temperature. […] Samples were resolved by SDS-PAGE using a 4–12% Bis-Tris gel (Invitrogen, NuPAGE) with MES SDS running buffer for 50 min at 180 V. Fluorescence was read out using the Alexa564 (λex/em 520–545/577–613 nm, for TAMRA) and Alexa680 (λex/em 650–675/700–730 nm, for the PageRuler Prestained NIR Protein Ladder (Thermo Scientific)) channels on a ChemiDoc MP Imaging System (Bio-Rad).

HEK293 cells = assay: Cell growth and viability assay (confluency, propidium iodide); type: cell-based, human; conditions: up to 5 µM, up to 72 h
Protocol: (§1) HEK293 cells (5 × 10^3/well) or U-87 MG cells (5.5 × 10^3/well) were seeded into 96-well dishes. The following day cells were treated with the compounds at varying concentrations and propidium iodide at 20 µg/mL. The plates were immediately transferred to the Incucyte S3. Bright-field and red fluorescent images were automatically captured at 1 or 2 h intervals for 72 h with 10x magnification. The confluency of cells and the number of PI-positive cells was determined using the Incucyte masking program.

U-87 MG cells = assay: as above; type: cell-based, human; conditions: up to 5 µM, up to 72 h
Protocol: as §1

[3] = system: monoubiquitin in U-87 MG cells; assay: Quantification of monoubiquitin levels; type: cell-based, human; conditions: 48 h; for monoubiquitin intensity normalized to DMSO (= 1): independent experiments
Protocol: U-87 MG cells (5 × 10^5/well) were seeded in six-well plates and cultivated for 8 h. Cells were transfected with siRNA as described above. On the next day, cells were cultured in fresh media supplemented with either compounds (final conc. 5 µM) or DMSO, where indicated, for a further 48 h. The media was changed every 24 h to a fresh medium supplemented with compounds (final conc. 5 µM) or DMSO. […] Monoubiquitin band intensities were first normalized to α-tubulin or total protein (Fast Green FCF, TCI) and subsequently normalized to the intensities of monoubiquitin bands in the sample treated with DMSO or siScr (where no DMSO was used) which was set to “1”.

UCHL1 [4] = target: T1, UCHL1; assay: Identification of probe-labeled proteins with mass spectrometry (pulldown enrichment); conditions: HEK293 cells, 24 h
Protocol: Cells were cultured, treated with a compound, and lysed as described above. The cell lysate was diluted to a protein concentration of 2 mg/mL with ABP lysis buffer. 1 µL of each click reagent (see above) were added to each sample, followed by an incubation period of one hour at room temperature with protection from light. The sample volume was adjusted to 1000 µL with PBS and 30 µL of a NeutrAvidin (Thermo Fisher) bead slurry (prewashed 3x with PBS) were added to each sample. The samples were incubated for one hour to overnight on a rotator at 15 rpm at 4 °C. Beads were pelleted by centrifugation, the supernatant was discarded, and the beads were washed six times (1x with ½x lysis buffer, followed by five washes with PBS). After removing the washing solution completely, the beads were subjected to reduction with dithiothreitol (1 mM), alkylation with chloroacetamide (5 mM) and on-bead digestion with first LysC (Serva Biotech, 1 h, 37 °C), followed by trypsin (Sigma Aldrich, 1 h, overnight). Tryptic peptides were desalted with C18 StageTips and analyzed by nano-HPLC-MS/MS.
An Ultimate 3000 RSLC nano-HPLC system and a Hybrid-Orbitrap mass spectrometer (Q Exactive Plus) equipped with a nano-spray source (Thermo Fisher Scientific) was used. The protein fragments were enriched on a C18 PepMap 100 column (5 μm, 100 Å, 300 μm ID * 5 mm, Dionex) using 0.1% TFA, at a flow rate of 30 μL/min, for 5 min and separated on a C18 PepMap 100 column (3 μm, 100 Å, 75 μm ID × 50 cm) using a linear gradient (5–30% ACN/H2O + 0.1% formic acid over 90 min) with a flow rate of 300 nL/min. […] Signals in the mass range of m/z 300 to 1650 were acquired at a resolution of 70,000 for the full scan, followed by ten high-energy collision-dissociation (HCD) MS/MS scans of the most intense at least doubly charged ions at a resolution of 17,500. Proteins were relatively quantified by using MaxQuant[60] v.2.0.3.1, including the Andromeda search algorithm and searching the Homo sapiens reference proteome of the UniProt database. Briefly, an MS/MS ion search was performed for enzymatic trypsin cleavage, allowing two missed cleavages. Carbamidomethylation was set as a fixed protein modification, and oxidation of methionine and acetylation of the N-terminus were set as variable modifications. The mass accuracy was set to 20 parts per million (ppm) for the first search and to 4.5 ppm for the second search. The false discovery rates for peptide and protein identification were set to 0.01. Only proteins for which at least two peptides were quantified were chosen for further validation. Relative quantification of proteins was performed by using the label-free quantification algorithm implemented in MaxQuant. Statistical data analysis of pulldown samples was performed using Perseus[61] v.1.6.15.0, including proteins which were identified in at least four of the five biological replicates which were used per condition. Label-free quantification (LFQ) intensities were log-transformed (log2); replicate samples were grouped together. Pairwise comparisons of groups were performed separately. Missing values were imputed using small normally distributed values (width 0.3, downshift 1.8) and a two-sided t-test (s0 = 5, FDR = 0.001) was performed.

[5] = 1 h, read-out: UCHL1 activity, data point mean

C#CCCCNC(=O)c1ccc(-n2cnc(NC(=O)[C@H]3CCN(C#N)C3)c2)cc1 [GK13S]
remaining activity at 0.000610352 µM (UCHL1 [1]; [5]): 98.8% | remaining activity at 0.0012207 µM (UCHL1 [1]; [5]): 96.5% | remaining activity at 0.00244141 µM (UCHL1 [1]; [5]): 95% | remaining activity at 0.00488281 µM (UCHL1 [1]; [5]): 91.2% | remaining activity at 0.00976562 µM (UCHL1 [1]; [5]): 85.3% | remaining activity at 0.0195312 µM (UCHL1 [1]; [5]): 76.8% | remaining activity at 0.0390625 µM (UCHL1 [1]; [5]): 65.7% | remaining activity at 0.078125 µM (UCHL1 [1]; [5]): 44.1% | remaining activity at 0.15625 µM (UCHL1 [1]; [5]): 23.2% | remaining activity at 0.3125 µM (UCHL1 [1]; [5]): 8.06% | remaining activity at 0.625 µM (UCHL1 [1]; [5]): 3.5% | remaining activity at 1.25 µM (UCHL1 [1]; [5]): 2.31% | remaining activity at 2.5 µM (UCHL1 [1]; [5]): 3.03% | remaining activity at 5 µM (UCHL1 [1]; [5]): 1.18% | remaining activity at 10 µM (UCHL1 [1]; [5]): 0.488% | IC50 (UCHL1 [1]; 1 h preincubation, mean ± SD of independent experiments, read-out: IC50 (UCHL1)): 50 nM | IC50 (UCHL1 [1]; Fig. 6b, catalytic domain, 1 h preincubation with GK13S, read-out: IC50 (UCHL1)): 87 ± 8 nM | normalized UCHL1 activity (UCHL1 [1]; GK13S 0.610352 nM, 1 h preincubation): 0.9506 and 0.9879 and 1.014 and 0.9975 and 0.9955 | normalized UCHL1 activity (UCHL1 [1]; GK13S 1.2207 nM, 1 h preincubation): 0.9497 and 0.9646 and 1.019 and 1.0024 and 0.9988 | normalized UCHL1 activity (UCHL1 [1]; GK13S 2.44141 nM, 1 h preincubation): 0.9185 and 0.9495 and 1.017 and 0.9974 and 0.9924 | normalized UCHL1 activity (UCHL1 [1]; GK13S 4.88281 nM, 1 h preincubation): 0.8798 and 0.9115 and 1.0474 and 0.9893 and 0.9704 | normalized UCHL1 activity (UCHL1 [1]; GK13S 9.76562 nM, 1 h preincubation): 0.8185 and 0.8529 and 0.9722 and 1.013 and 0.9579 | normalized UCHL1 activity (UCHL1 [1]; GK13S 19.5312 nM, 1 h preincubation): 0.7093 and 0.7679 and 0.9238 and 0.9667 and 0.9242 | normalized UCHL1 activity (UCHL1 [1]; GK13S 39.0625 nM, 1 h preincubation): 0.5709 and 0.6568 and 0.8808 and 0.9371 and 0.8799 | IC50 (UCHL1 [1]; source data Fig. 3b, 1 h preincubation, read-out: Averaged IC50s from independent experiments (single experiments)): 36 nM and 65 nM and 49 nM | IC50 (UCHL3 A11I): 32000 ± 7000 nM | IC50 (UCHL3 A11I+L168F): 11000 ± 2000 nM | protein species observed after compound treatment (UCHL3 A11I,L168F): + 1x GK13S | reversibility of inhibition after jump dilution (UCHL1 [2]): inhibition was sustained | DUB engagement (Ub-VS competitive labeling) (DUBs in HEK293 lysate): Ubiquitin-probe competitive band of approx. 30 kDa | growth arrest and apoptosis (HEK293 cells): neither GK13S nor GK16S showed growth arrest nor apoptosis | toxicity (cell growth and viability) (U-87 MG cells): nontoxic | levels of free monoubiquitin (western blot) ([3]; 5 µM): reduced | monoubiquitin intensity normalized to DMSO (= 1) ([3]; siSCr, 5 µM): 0.576 and 0.6744 and 0.83 and 0.6532 | monoubiquitin intensity normalized to DMSO (= 1) ([3]; siUCHL3, 5 µM): 0.757 and 0.6937 and 0.5404 and 0.5552 and 0.8593 and 0.6907 | change in log2 enrichment values of UCHL1, GK13S vs GK13R (UCHL1 [4]; 1 µM): 2 | change in log2 enrichment values of UCHL1, GK13S vs GK16S (UCHL1 [4]; 1 µM): 5 | difference in UCHL1 enrichment, GK13S vs GK13R (UCHL1 [4]; 1 µM): fourfold | difference in UCHL1 enrichment, GK13S vs GK16S (UCHL1 [4]; 1 µM): > 32 fold | enrichment factor of UCHL1 (log2, vs DMSO) (UCHL1 [4]; 1 µM): 8 and > 8 | enrichment of UCHL1 vs DMSO (UCHL1 [4]; 5 µM): ~ 3000 fold | logarithmic enrichment factor of UCHL1 (log2, vs DMSO) (UCHL1 [4]; 5 µM): 11.5
